Measurements: patent publication US7022699B2, “Cyclohexenyl phenyl diazepines vasopressin and oxytocin receptor modulators” (Wyeth, priority 2001, dated 2006)

Target: T1, human vasopressin V1a receptor subtype (Homo sapiens, UniProt P37288)
T1 construct: host or cells: CHO cells, stably transfected (pZeoSV vector for the Thibonnier cells); membranes
Test: Vasopressin binding in CHO cell membranes expressing human vasopressin V1a subtype receptors ([3H]Manning ligand)
Settings: for inhibition at 0.1 µM / V1a % inhibition @ 100 nM: 100 nM, values without parentheses; for IC50: values in parentheses
From the text: Vasopressin Binding in Chinese Hamster Ovary Cell Membranes Expressing Human Vasopressin V1a Subtype Receptors
Chinese hamster ovary cells (CHO cells) stably transfected with the human vasopressin V1a subtype receptors were either obtained from Biosignal Inc., 1744 rue Williams, Montreal, Quebec, Canada or obtained from M. Thibonnier, Case Western Reserve University School of Medicine, Cleveland, Ohio. A. Passaging and Amplification of Cells: CHO cells transfected with the human vasopressin V1a subtype receptors obtained from M. Thibonnier (pZeoSV vector) are allowed to grow to confluency (approx. >90%) in T-150 flasks under sterile conditions, in a cell culture medium of F-12 Nutrient Mixture (HAM) with L-glutamine (Gibco Cat. #11765-054) containing 15 mM HEPES (Gibco Cat. #15630-080), 1% antibiotic/antimycotic (add 5 mL 100×, Gibco Cat. #15240-062 per 500 mL F-12), 250 μg/mL Zeocin (add 1.25 mL of 100 mg/mL Invitrogen R-250-01 per 500 mL F-12) and 10% Fetal Bovine Serum (Qualified, heat inactivated, Gibco Cat. #16140-063). The medium is removed by aspiration and the cells are washed with 10 mL of Hank's Balanced Salt solution (Gibco Cat. #14175-095). The salt solution is removed by aspiration and the cells are trypsinized with 5 mL of trypsin-EDTA (0.05% trypsin, 0.53 mM EDTA-4Na, Gibco Cat. #25300-070) for 1 min. The trypsin is removed by aspiration and the cells dislodged by tapping. Cell Culture medium (eg, 30 mL for 1:30 split) is immediately added and mixed well to inactivate trypsin. 1 mL of detached cells is added to new culture flasks containing fresh cell culture medium (eg, into 25 mL per T-150 flask), and mixed gently. The cells are incubated at 37° C. in 5% CO2. The medium is changed at 3 to 4 days interval (or as appropriate). The cells grow to confluency (approx. >75%–95%) within 7–8 days. All steps are done under sterile conditions. B. Membrane Preparation: The cells are washed twice gently with Hank's Balanced Salt solution (e.g.,. use 10 mL per T-150 flask). The excess is removed and the cells are bathed for 15–30 min. in an enzyme-free Cell Dissociation Buffer (e.g. use 8 mL Hank's Based, Gibco Cat. #13150-016 per T-150 flask) until the cells are loosened. The contents are transferred to centrifuge tubes (50 mL size) kept in ice bath. All subsequent steps are done at 4° C. The tubes are centrifuged at 300×g for 15 min (1380 rpm on SORVAL, Model RT6000D, using rotor for 50 mL tubes). The supernatant is discarded and the cells suspended in homogeneizing buffer (10 mM Tris-HCl containing 0.25 M sucrose and 1 mM EDTA, pH 7.4) ensuring that the volume of the buffer is about ten times the volume of the cell pellet. The cells are pooled into a centrifuge tube (50 mL) and homogenized with Polytron at setting 6 for 10 sec. The homogenate is transferred into a Potter-Elvjehm homogenizer and homogenized with 3 strokes. The homogenate is centrifuged at 1500×g for 10 min at 4° C. (3100 rpm using SORVAL, model RT6000D, using rotor for 50 mL tubes). The pellet is discarded. The supernatant is centrifuged at 100,000×g for 60 min. at 4° C. (Beckman L8-80M ultracentrifuge; spin at 37,500 rpm with rotor type 70 Ti for 50 mL tubes; 38,000 rpm with type 80Ti for 15 mL tubes; or 35,800 rpm with rotor type 45Ti). The supernantant is discarded and the pellet suspended in 3 to 4 mL of Tris buffer (50 mM TRIS-HCl, pH 7.4). The protein content is estimated by the Bradford or Lowry method. The volume of the membrane suspension is adjusted with the membrane buffer (50 mM Tris-HCl containing 0.1% BSA and 0.1 mM PMSF) to give 3.0 mg/mL (or as appropriate) of protein. The membranes are aliquoted and stored at −70° C. C. […]

T1 sequence (P37288 whole entry): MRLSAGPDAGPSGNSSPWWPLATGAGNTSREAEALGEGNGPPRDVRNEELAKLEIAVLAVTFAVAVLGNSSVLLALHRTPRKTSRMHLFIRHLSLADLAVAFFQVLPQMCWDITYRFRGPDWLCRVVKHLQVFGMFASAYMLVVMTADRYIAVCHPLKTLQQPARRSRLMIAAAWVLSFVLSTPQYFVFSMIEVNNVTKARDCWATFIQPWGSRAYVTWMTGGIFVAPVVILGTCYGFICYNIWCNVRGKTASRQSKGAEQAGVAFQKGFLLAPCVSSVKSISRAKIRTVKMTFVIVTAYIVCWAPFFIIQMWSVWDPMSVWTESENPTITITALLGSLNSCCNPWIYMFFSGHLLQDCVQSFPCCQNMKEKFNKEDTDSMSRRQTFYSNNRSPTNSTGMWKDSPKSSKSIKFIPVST

Row | SMILES | inhibition at 0.1 µM [%] | further results
1 | CC1=C(c2ccc(C(=O)N3Cc4cccn4Cc4ccccc43)cc2C)CCCC1O (racemic) [Example 5, (10,11-Dihydro-5H-pyrrolo[2,1-c][1,4]benzodiazepin-10-yl)-[4-(3-hydroxy-2-methyl-cyclohex-1-en-1-yl)-3-methyl-phenyl]-methanone] | 0 | –
2 | CC1=C(c2ccc(C(=O)N3Cc4cccn4Cc4ccccc43)cc2C)CCC[C@H]1O (single isomer, unassigned) [Example 41] | 36 | –
3 | CC1=C(c2ccc(C(=O)N3Cc4cccn4Cc4ccccc43)cc2C)CCC[C@@H]1O (single isomer, unassigned) [Example 43] | 93 | –
4 | COc1cc(C2=CCCCC2)c(Cl)cc1C(=O)N1Cc2cccn2Cc2ccccc21 [Example 1, 10-(5-Chloro-4-cyclohex-1-en-1-yl-2-methoxybenzoyl)-10,11-dihydro-5H-pyrrolo[2,1-c][1,4]benzodiazepine] | – | IC50: 232 nM
5 | Cc1cc(C(=O)N2Cc3cccn3Cc3ccccc32)ccc1C1=CCCCC1 [Example 2, (10,11-Dihydro-5H-pyrrolo[2,1-c][1,4]benzodiazepin-10-yl)-(4-cyclohex-1-en-1-yl-3-methyl-phenyl)-methanone] | 74 | –
6 | Cc1cc(C(=O)N2Cc3cccn3Cc3ccccc32)ccc1C1=CCCc2ccccc21 [Example 3, (10,11-Dihydro-5H-pyrrolo[2,1-c][1,4]benzodiazepin-10-yl)-[4-(3,4-dihydro-naphthalen-1-yl)-3-methyl-phenyl]-methanone] | – | IC50: 432 nM
7 | CC1=C(c2ccc(C(=O)N3Cc4cccn4Cc4ccccc43)cc2C)CCCC1=O [Example 4, 3-[2-Methyl-4-(5H-pyrrolo[2,1-c][1,4]benzodiazepin-10(11H)-yl-carbonyl)phenyl]-2-methyl-cyclohex-2-en-1-one] | 7 | –
8 | CC1=C(c2ccc(C(=O)N3Cc4cccn4Cc4ccccc43)cc2C)CCC[C@H]1O [Example 6, (10,11-Dihydro-5H-pyrrolo[2,1-c][1,4]benzodiazepin-10-yl)-[4-((3R)-3-hydroxy-2-methyl-cyclohex-1-en-1-yl)-3-methyl-phenyl]-methanone] | 45 | –
9 | CC1=C(c2ccc(C(=O)N3Cc4cccn4Cc4ccccc43)cc2)CCCC1 [Example 7, (10,11-Dihydro-5H-pyrrolo[2,1-c][1,4]benzodiazepin-10-yl)-[4-(2-methyl-cyclohex-1-en-1-yl)-phenyl]-methanone] | – | IC50: 45.7 nM
10 | COc1cc(C2=CCCc3ccccc32)c(Cl)cc1C(=O)N1Cc2cccn2Cc2ccccc21 [Example 8, 10-[5-Chloro-4-(3,4-dihydro-naphthalen-1-yl)-2-methoxybenzoyl]-10,11-dihydro-5H-pyrrolo[2,1-c][1,4]benzodiazepine] | -9 | –
11 | COc1cc(C2=C(C)C(=O)CCC2)c(Cl)cc1C(=O)N1Cc2cccn2Cc2ccccc21 [Example 9, 3-[2-Chloro-5-methoxy-4-(5H-pyrrolo[2,1-c][1,4]benzodiazepin-10(11H)-yl-carbonyl)phenyl]-2-methyl-cyclohex-2-en-1-one] | 17 | –
12 | O=C(c1ccc(C2=CCCCC2)cc1Cl)N1Cc2cccn2Cc2ccccc21 [Example 10, (10,11-dihydro-5H-pyrrolo[2,1-c][1,4]benzodiazepin-10-yl)-[2-chloro-4-(cyclohex-1-en1-yl)-phenyl]-methanone] | 94 | –
13 | O=C(c1ccc(C2=CCCc3ccccc32)cc1Cl)N1Cc2cccn2Cc2ccccc21 [Example 11, (10,11-Dihydro-5H-pyrrolo[2,1-c][1,4]benzodiazepin-10-yl)-[2-chloro-4-(3,4-dihydro-naphthalen-1-yl)-phenyl]-methanone] | 6 | –
14 | CC1(C)CCCC=C1c1ccc(C(=O)N2Cc3cccn3Cc3ccccc32)c(Cl)c1 [Example 12, (10,11-Dihydro-5H-pyrrolo[2,1-c][1,4]benzodiazepin-10-yl)-[2-chloro-4-(6,6-dimethyl-cyclohex-1-en-1-yl)-phenyl]-methanone] | 54 | –
15 | CC1=C(c2ccc(C(=O)N3Cc4cccn4Cc4ccccc43)c(Cl)c2)CCCC1=O [Example 13, (10,11-Dihydro-5H-pyrrolo[2,1-c][1,4]benzodiazepin-10-yl)-[2-chloro-4-(2-methyl-3-oxo-cyclohex-1-en-1-yl)-phenyl]-methanone] | 95 | –
16 | CC1=C(c2ccc(C(=O)N3Cc4cccn4Cc4ccccc43)c(Cl)c2)CCCC1O (centres unmarked) [Example 14, (10,11-Dihydro-5H-pyrrolo[2,1-c][1,4]benzodiazepin-10-yl)-[2-chloro-4-(3-hydroxy-2-methyl-cyclohex-1-en-1-yl)-phenyl]-methanone] | 10 | –
17 | O=C(c1ccc(C2=CCCCC2)cc1)N1Cc2cccn2Cc2ccccc21 [Example 15, (10,11-Dihydro-5H-pyrrolo[2,1-c][1,4]benzodiazepin-10-yl)-(4-cyclohex-1-en-1-yl-phenyl)-methanone] | – | IC50: 35.3 nM
18 | CC1CCCC=C1c1ccc(C(=O)N2Cc3cccn3Cc3ccccc32)cc1 (centres unmarked) [Example 16, (10,11-Dihydro-5H-pyrrolo[2,1-c][1,4]benzodiazepin-10-yl)-[4-(6-methyl-cyclohex-1-en-1-yl)-phenyl]-methanone] | – | IC50: 77.8 nM
19 | CC1(C)CCCC=C1c1ccc(C(=O)N2Cc3cccn3Cc3ccccc32)cc1 [Example 17, (10,11-Dihydro-5H-pyrrolo[2,1-c][1,4]benzodiazepin-10-yl)-[4-(6,6-dimethyl-cyclohex-1-en-1-yl)-phenyl]-methanone] | 51 | –
20 | O=C(c1ccc(C2=CCCc3ccccc32)cc1)N1Cc2cccn2Cc2ccccc21 [Example 18, (10,11-Dihydro-5H-pyrrolo[2,1-c][1,4]benzodiazepin-10-yl)-[4-(3,4-dihydro-naphthalen-1-yl)-phenyl]-methanone] | 51 | –
21 | CC1=C(c2ccc(C(=O)N3Cc4cccn4Cc4ccccc43)cc2)C(C)CCC1 (centres unmarked) [Example 19, (10,11-Dihydro-5H-pyrrolo[2,1-c][1,4]benzodiazepin-10-yl)-[4-(2,6-dimethyl-cyclohex-1-en-1-yl)-phenyl]-methanone] | 23 | –
22 | CC(C)(C)C1CCCC=C1c1ccc(C(=O)N2Cc3cccn3Cc3ccccc32)cc1 (centres unmarked) [Example 20, (10,11-5H-Dihydro-pyrrolo[2,1-c][1,4]benzodiazepin-10-yl)-[4-(6-tert-butyl-cyclohex-1-en-1-yl)-phenyl]-methanone] | – | V1a % inhibition @ 100 nM: 4%
23 | O=C(c1ccc(C2=CCC3CCC2C3)cc1)N1Cc2cccn2Cc2ccccc21 (centres unmarked) [Example 21] | – | V1a % inhibition @ 100 nM: 37%
24 | CC1(C)C2CC=C(c3ccc(C(=O)N4Cc5cccn5Cc5ccccc54)cc3)C1C2 (centres unmarked) [Example 22, (10,11-Dihydro-5H-pyrrolo[2,1-c][1,4]benzodiazepin-10-yl)-[4-(6,6-dimethyl-bicyclo[3.1.1]hept-2-en-2-yl)-phenyl]-methanone] | 13 | –
25 | CC1(C)C=C(c2ccc(C(=O)N3Cc4cccn4Cc4ccccc43)cc2)CC(C)(C)C1 [Example 23, (10,11-Dihydro-5H-pyrrolo[2,1-c][1,4]benzodiazepin-10-yl)-[4-(3,3,5,5-tetramethyl-cyclohex-1-en-1-yl)-phenyl]-methanone] | -10 | –
26 | O=C1C=C(c2ccc(C(=O)N3Cc4cccn4Cc4ccccc43)cc2)CCC1 [Example 24, 3-[4-(10,11-Dihydro-5H-pyrrolo[2,1-c][1,4]benzodiazepine-10-carbonyl)-phenyl]-cyclohex-2-en-1-one] | 49 | –
